As a reminder, the IC50 is the concentration at which inhibition is half-maximal.

Data on nine compounds can be found in patent US11767322B2 (BRISTOL-MYERS SQUIBB COMPANY, priority 2020, dated 2023).

Assay [1] deals with MLKL phosphorylation in HT29-L23 human colorectal adenocarcinoma cells. The assay can be described thus: MLKL phosphorylation high-content assay. Format: cell-based.
Assay [2] addresses T1, His-GST-TVMV-hRIPK1(1-324) (Homo sapiens, UniProt Q13546).
T1 construct: The coding region of human RIPK1(1-324) flanked by NdeI site at 5′ end; made in house; host or cells: Spodoptera frugiperda Sf9 insect cells (baculovirus, Bac-to-Bac)
T1 sequence (Q13546 1-324): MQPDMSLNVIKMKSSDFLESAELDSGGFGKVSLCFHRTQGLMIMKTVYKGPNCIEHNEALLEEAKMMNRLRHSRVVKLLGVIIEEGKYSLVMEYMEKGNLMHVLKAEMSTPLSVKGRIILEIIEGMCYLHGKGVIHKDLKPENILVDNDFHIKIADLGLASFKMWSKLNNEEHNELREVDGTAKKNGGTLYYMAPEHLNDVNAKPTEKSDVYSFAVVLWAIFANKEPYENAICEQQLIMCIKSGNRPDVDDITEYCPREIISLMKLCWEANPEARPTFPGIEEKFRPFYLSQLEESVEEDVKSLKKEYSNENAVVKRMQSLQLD
Description: biochemical. Format: binding.

Setting [3] is: read-out: pMLKL IC50, HT29-L23 cells, necroptosis induced with TNFα, SMAC mimetic and Z-VAD, 6 h, maximal inhibition defined by Nec1s.
Setting [4] is: HTRF probe displacement, 1 h at rt, read-out: RIPK1 IC50.
[5] abbreviates: Homo sapiens, 6 h, read-out: pMLKL IC50, HT29-L23 cells, necroptosis induced with TNFα, SMAC mimetic and Z-VAD, 6 h, maximal inhibition defined by Nec1s.

Like-named read-outs stand apart in the source and are kept apart here.

Regarding `Nc1nc2cc(-c3ccc(Cl)c(C(=O)NCC(F)(F)C(O)c4cccc(F)c4F)c3F)ccn2n1` (single isomer, unassigned) [Example 167, 3-(2-amino-[1,2,4]triazolo[1,5-a]pyridin-7-yl)-6-chloro-N-(3-(2,3-difluorophenyl)-2,2-difluoro-3-hydroxypropyl)-2-fluorobenzamide], the figures for the IC50 in assay [1] (setting [3]) and in assay [2] (setting [4]) were 7.8 nM and 15 nM, respectively.
For `Nc1nc2cc(-c3ccc(Cl)c(C(=O)NCC(F)(F)C(O)c4cc(Cl)ccc4F)c3F)ccn2n1` (centres unmarked) [Example 181, 3-(2-amino-[1,2,4]triazolo[1,5-a]pryidin-7-yl)-6-chloro-N-(3-(5-chloro-2-fluorophenyl)-2,2-difluoro-3-hydroxypropyl)-2-fluorobenzamide], in that order: 0.3 nM and 1.7 nM.
In the case of `Cc1ccc(-c2ccn3nc(N)nc3c2)c(F)c1C(=O)NCC(O)C(F)(F)c1ccc(F)cc1` (single isomer, unassigned) [Example 290, 3-(2-amino-[1,2,4]triazolo[1,5-a]pyridin-7-yl)-N-(3,3-difluoro-3-(4-fluorophenyl)-2-hydroxypropyl)-2-fluoro-6-methylbenzamide], the IC50 in assay [1] (setting [3]) worked out at 0.5 nM; in assay [1] (read-out: pMLKL IC50, Table 22, compounds of the present invention) it was 0.5 nM; in assay [2] (setting [4]), 4.8 nM; in assay [2] (Table 22, compounds of the present invention, read-out: RPIK1 IC50), 4.8 nM.
With `Nc1nc2cc(-c3ccc(OC(F)F)c(C(=O)NCC(F)(F)[C@@H](O)c4ccc(F)cc4)c3F)ccn2n1` [Example 306, (S)-3-(2-amino-[1,2,4]triazolo[1,5-a]pyridin-7-yl)-N-(2,2-difluoro-3-(4-fluorophenyl)-3-hydroxypropyl)-6-(difluoromethoxy)-2-fluorobenzamide], the IC50 came out at 4.2 nM in assay [1] (setting [5]) and 11 nM in assay [2] (setting [4]).
With `Cc1ccc(-c2ccn3nc(N)nc3c2)c(F)c1C(=O)NCC(F)(F)[C@@H](OC(N)=O)c1ccc(F)cc1` [Example 276, (S)-3-(3-(2-amino-[1,2,4]triazolo[1,5-a]pyridin-7-yl)-2-fluoro-6-methylbenzamido)-2,2-difluoro-1-(4-fluorophenyl)propyl carbamate], the IC50 was 8.4 nM in assay [1] (setting [5]) and 3.7 nM in assay [2] (setting [4]).
Regarding `[2H]C([2H])([2H])c1ccc(-c2ccn3nc(N)nc3c2)c(F)c1C(=O)NCC(F)(F)C(C)(O)c1ccc(F)cc1` (single isomer, unassigned) [Example 242, 3-(2-amino-[1,2,4]triazolo[1,5-a]pyridin-7-yl)-N-(2,2-difluoro-3-(4-fluorophenyl)-3-hydroxybutyl)-2-fluoro-6-(methyl-d3)benzamide], the IC50 in assay [1] (setting [3]) turned out to be 1 nM; in assay [2] (setting [4]) it was 9.1 nM.
The like results for `COC(c1ccc(F)cc1)C(F)(F)CNC(=O)c1c(C)ccc(-c2ccn3nc(N)nc3c2)c1F` (single isomer, unassigned) [Example 233, 3-(2-amino-[1,2,4]triazolo[1,5-a]pyridin-7-yl)-N-(2,2-difluoro-3-(4-fluorophenyl)-3-methoxypropyl)-2-fluoro-6-methylbenzamide] were, in that order, 0.5 nM and 2.6 nM.
Take `Cc1ccc(-c2ccn3nc(N)nc3c2)c(F)c1C(=O)NCCC(C)(O)c1ccc(Cl)cc1` (racemic) [Example 17, 3-(2-amino-[1,2,4]triazolo[1,5-a]pyridin-7-yl)-N-(3-(4-chlorophenyl)-3-hydroxybutyl)-2-fluoro-6-methylbenzamide]: the IC50 was 2.5 nM in assay [1] (setting [5]) and 1.9 nM in assay [2] (setting [4]).
For `Nc1nc2cc(-c3ccc(Cl)c(C(=O)NCC(F)(F)C4(c5ccc(F)cc5)COC4)c3F)ccn2n1` [Example 245, 3-(2-amino-[1,2,4]triazolo[1,5-a]pyridin-7-yl)-6-chloro-N-(2,2-difluoro-2-(3-(4-fluorophenyl)oxetan-3-yl)ethyl)-2-fluorobenzamide], in that order: 3.7 nM and 19 nM.
